In patent publication WO2015077660A1, “Enzyme reactor system enabling enhanced enzymatic digestion, analyte solubility and improved mass spectrometric compatibility” (priority 2013, dated 2014):

Columns and labels:
trypsin = assay: Insulin digestion in immobilized enzyme reactor, buffer screening (Table 7); assay type: biochemical, porcine; details: IMER, 70°C, 60 s
porcine trypsin = test system: T1, porcine trypsin; assay: Insulin digestion by trypsin in solution, buffer screening (Table 9); assay type: biochemical; details: 37°C, 18 h
T1 construct: purchased

BSA = assay: Screen of additives for prevention of aggregation (Table 5); assay type: physicochemical, bovine; details: 12.5 mg/mL BSA, 70°C, four columns in printed order, heads missing

SMILES	Digested (trypsin; 5%)	Peptide (trypsin; 5%)	Undigested (trypsin; 5%)	Digested (trypsin; 10%)	Peptide (trypsin; 10%)	Undigested (trypsin; 10%)	Digested (trypsin; 15%)	Peptide (trypsin; 15%)	Undigested (trypsin; 15%)	Digested (trypsin; 20%)	Peptide (trypsin; 20%)	Undigested (trypsin; 20%)	Digested (porcine trypsin; 5%)	Peptide (porcine trypsin; 5%)	Undigested (porcine trypsin; 5%)	Digested (porcine trypsin; 10%)	Peptide (porcine trypsin; 10%)	Undigested (porcine trypsin; 10%)	Digested (porcine trypsin; 15%)	Peptide (porcine trypsin; 15%)	also measured
CC#N [ACN, acetonitrile]	1344796	568057	3327305	719966	309638	4860471	292205	116402	5326017	194140	86754	6433237	1409360	625535	5143004	1676314	692364	4742266	1925305	779339	Undigested (porcine trypsin; 15%): 2715010; Digested (porcine trypsin; 20%): 2507679; Peptide (porcine trypsin; 20%): 1020020; Undigested (porcine trypsin; 20%): 3445401
CN(C)C=O [DMF, dimet ylformamide]																					aggregation (BSA; 20%): Y and Υ
C[S+](C)[O-] [DMSO, dimethylsulfoxide]	1804007	719810	2280353	1483343	618353	2811668	1058609	437967	3394971	722730	296540	3631216	1193067	499051	3219771	1185116	442885	3803031	1233021	481657	Undigested (porcine trypsin; 15%): 4423224; Digested (porcine trypsin; 20%): 1215388; Peptide (porcine trypsin; 20%): 467559; Undigested (porcine trypsin; 20%): 4523186
C[C@H](CCC(=O)O)[C@H]1CC[C@H]2[C@@H]3CC[C@@H]4C[C@H](O)CC[C@]4(C)[C@H]3C[C@H](O)[C@]12C [Deoxycholate]																					aggregation (BSA; additive concentration not given): Υ
O=S(=O)(O)CCN1CCN(CCO)CC1 [HEPES]																					Digested (trypsin; 50 mM): 2438065; Peptide (trypsin; 50 mM): 1040553; Undigested (trypsin; 50 mM): 1152957; Digested (porcine trypsin; 50 mM): 1758816; Peptide (porcine trypsin; 50 mM): 758959; Undigested (porcine trypsin; 50 mM): 2816170
CC(C)O [IPA, isopropyl alcohol]	696091	291902	4427643	208098	86945	5774155	126129	52332	5930073	135325	55155	5148164	1024085	407876	3528233	1133300	418703	3935383	906822	322103	Undigested (porcine trypsin; 15%): 4509078; Digested (porcine trypsin; 20%): 954036; Peptide (porcine trypsin; 20%): 347874; Undigested (porcine trypsin; 20%): 4992140
